{"source": "patent US20260109725A1", "about": "“MACROLIDE SENOLYTIC COMPOUNDS” (LUNELLA BIOTECH, INC., priority 2022, published 2026)", "key": {"[1]": {"system": "normal MRC-5 cells", "assay": "Images of MRC-5 fibroblasts without BrdU pre-treatment", "assay_type": "cell-based, human", "conditions": "50 μM", "procedure": "FIGS. 3A and 3B are images of MRC-5 fibroblasts without and with BrdU pre-treatment, respectively, treated with Compound [I] at a concentration of 50 μM. […] The scale bar in the upper-right of FIGS. 3B and 3C represents 20 μm.\n(§1) BrdU Assay: Cells were plated into 24-well plates. Next day, half of the plate was treated with 100 μM of BrdU while control wells were treated with vehicle only (DMSO) and incubated for 8 days at 37° C. in a 5% CO2 humidified atmosphere. After 8 days of BrdU treatment cells were treated with various test compounds or drugs (e.g., azithromycin, roxithromycin, telithromycin, erythromycin, etc.) for another 3-5 days. BrdU or vehicle treatments were continued during the drug treatments as well."}, "[2]": {"system": "Staphylococcus aureus ATCC 29213", "assay": "in vitro broth microdilution assay (MIC)", "assay_type": "cell-based", "conditions": "ATCC29213; Staphylococcus aureus ATCC 29213, QC strain", "procedure": "(§2) This is advantageous because use of the compounds of the present approach as therapeutic agents will have less of an impact on the development of antibiotic resistance. For example, embodiments of the present approach were screened for antibiotic activity, using the in vitro broth microdilution assay. […] The assay conditions, described by the Clinical and Laboratory Standards Institute were used for preparation of the inoculum, growth medium, and end point reading. Test substance was dissolved in 100% DMSO, suspended completely by vortexing, diluted by 2-fold serial titrations in the same vehicle, for a total of 11 test concentrations. A 4 μL aliquot of each dilution was added to 196 μL of broth medium seeded with the organism suspension in wells of a 96 well plate (bacterial count: 2-8×10(5) colony forming units/mL final). The final volume was 200 μL in each well and the final DMSO concentration was 2 percent. Test concentrations were 0.1 to 100 μM. Following incubation, the test plates were visually examined and wells were scored for growth or complete growth inhibition to define the minimum inhibitory concentration. Each test substance was evaluated with replicates. Vehicle controls and an active reference agent were used as blank and positive controls. Note that MRSA represents methicillin-resistant Staphylococcus aureus, and VRE represents vancomycin resistant Enterococcus."}, "[3]": {"system": "Enterococcus faecium ATCC 700221 VanA VRE", "assay": "in vitro broth microdilution assay (MIC)", "assay_type": "cell-based", "procedure": "as §2"}, "[4]": {"system": "Acinetobacter baumannii ATCC 17978", "assay": "in vitro broth microdilution assay (MIC)", "assay_type": "cell-based", "conditions": "ATCC17978", "procedure": "as §2"}, "[5]": {"system": "Escherichia coli JW5503 DEL-tolC", "assay": "in vitro broth microdilution assay (MIC)", "assay_type": "cell-based", "conditions": "JW5503DELTOLC", "procedure": "as §2"}, "[6]": {"system": "Staphylococcus aureus ATCC 33591 MRSA", "assay": "in vitro broth microdilution assay (MIC)", "assay_type": "cell-based", "procedure": "as §2"}, "[7]": {"system": "Escherichia coli ATCC 25922", "assay": "in vitro broth microdilution assay (MIC)", "assay_type": "cell-based", "conditions": "ATCC25922; Escherichia coli ATCC 25922, QC strain", "procedure": "as §2"}, "[8]": {"system": "Enterococcus faecalis ATCC 29212", "assay": "in vitro broth microdilution assay (MIC)", "assay_type": "cell-based", "conditions": "ATCC29212; Enterococcus faecalis ATCC 29212, QC strain", "procedure": "as §2"}, "[9]": {"system": "Streptococcus pneumoniae ATCC 49619", "assay": "in vitro broth microdilution assay (MIC)", "assay_type": "cell-based", "conditions": "ATCC49619; Streptococcus pneumoniae ATCC 49619, QC strain", "procedure": "as §2"}, "[10]": {"system": "microorganism", "assay": "antibiotic activity screen, in vitro broth microdilution assay (overall statement)", "assay_type": "cell-based", "conditions": "vs azithromycin and erythromycin / reference compounds", "procedure": "as §2"}, "[11]": {"system": "MRC-5 cells treated with BrdU", "assay": "xCELLigence assay, BrdU-treated MRC-5 cells", "assay_type": "cell-based, human", "conditions": "50 μM, 5 days after 8 days BrdU, compared to the control", "text": "Senescent cells undergo the so-called senescence-associated secretory phenotype (SASP), which involves dramatic increases in the synthesis and secretion of proteins. The xCELLigence assay system was used to assess whether protein measurement assays under-estimate the senolytic activity of tested compounds. […] The real-time xCELLigence assay system thus compliments the more static SRB assay, and offers a more direct visualization of the potential senolytic effects of compounds during drug screening.\nThe xCELLigence assay was used to confirm senolytic activity for Compound [I]. MRC-5 fibroblasts were used for the assay. […] The data is expressed as the final cell index, the average±the standard error of mean, for the control cells, control cells treated with Compound [I], BrdU-treated control cells, and BrdU-treated fibroblasts subjected to Compound [I] at 50 μM, respectively. The senescent MRC-5 cells were pretreated with BrdU for 8 days to induce senescence, before exposure to Compound [I] for another 5 days. Compared to the control, Compound [I] treatment had no effect on the viability of normal fibroblasts, but killed over 90% of the BrdU-treated fibroblasts.\nxCELLigence Assay System: xCELLigence RTCA System (ACEA Biosciences Inc.). […] This approach allows the quantification of the onset and kinetics of the cellular response. […]"}, "[12]": {"system": "control MRC-5 cells (normal lung fibroblasts)", "assay": "SRB assay, control (normal) MRC-5 cells", "assay_type": "cell-based, human", "conditions": "10 μM", "procedure": "For example, in one assay bromodeoxyuridine (5-bromo-2′-deoxyuridine), also known as BrdU, was used to induce senescence in a cell population. BrdU is an analog of the nucleoside thymidine commonly used to identify proliferating cells. BrdU induces controlled DNA damage, and drives cells towards senescence with high efficiency. In the BrdU assay, normal fibroblasts are subjected to prolonged culture (8-days) in the presence of BrdU at 100 μM to induce controlled DNA-damage and senescence. […] Senolytic activity was assessed using the sulforhodamine B assay, also known in the art as the SRB assay. This assay measures the amount of protein remaining attached to the tissue-culture dishes, and is a surrogate marker for cell viability.\nFIG. 1 compares SRB assay results for different concentrations of Azithromycin (100 µM and 50 μM) and Compound [I] (100 μM and 50 μM) of the present approach, on both control MRC-5 cells and MRC-5 cells treated with BrdU. […] (labelled as “Azi-Gal” in FIG. 1) for another 5 days. After that, the SRB assay was performed to determine the effects of the drug on cell viability, using normal MRC-5 cells as the control. […] However, at 50 μM Azithromycin had no effect on either the control cells or senescent cells.\nas §1\nSulphorhodamine B assay: After the incubation of the plates cell viability was measured by Sulphorhodamine B assay (SRB). The assay is based on the measurement of cellular protein contents. Cells were fixed with 10% Trichloroacetic acid (TCA) for 1 hour at […], and were dried overnight at room temperature. Then, plates were incubated with SRB for 30 min, washed twice with 1% acetic acid and air dried for at least 1 h. Finally, the protein-bound dye was dissolved in a 10 mM Tris, pH 8.8, solution and read using a plate reader at 540-nm."}}, "data": [{"smiles": "CC[C@H]1OC(=O)[C@H](C)[C@@H](O[C@@H]2C[C@@](C)(OC)[C@@H](O)[C@H](C)O2)[C@H](C)[C@@H](O[C@@H]2O[C@H](C)C[C@H](N(C)C)[C@H]2OC(=O)OCc2ccc(O[C@@H]3O[C@H](COC(C)=O)[C@H](OC(C)=O)[C@H](OC(C)=O)[C@H]3OC(C)=O)c([N+](=O)[O-])c2)[C@](C)(O)C[C@@H](C)CN(C)[C@H](C)[C@@H](O)[C@]1(C)O", "note": "[Compound [I], [(2R,3S,4S,5R,6S)-3,4,5-triacetoxy-6-[4-[[(2S,3R,4S,6R)-4-(dimethylamino)-2-[[(2R,3S,4R,5R,8R,10R,11R,12S,13S,14R)-2-ethyl-3,4,10-trihydroxy-13-[(2S,4R,5S,6S)-5-hydroxy-4-methoxy-4,6-dimethyl-tetrahydropyran-2-yl]oxy-3,5,6,8,10,12,14-heptamethyl-15-oxo-1-oxa-6-azacyclopentadec-11-yl]oxy]-6-methyl-tetrahydropyran-3-yl]oxycarbonyloxymethyl]-2-nitro-phenoxy]tetrahydropyran-2-yl]methyl acetate]", "values": [{"measurement": "effect on normal MRC-5 cells (images)", "setting": "[1]", "result": "little effect"}, {"measurement": "MIC", "setting": "[2]", "result": 6.25, "unit": "µM"}, {"measurement": "MIC", "setting": "[3]", "result": "> 100", "unit": "µM"}, {"measurement": "MIC", "setting": "[4]", "result": 100, "unit": "µM"}, {"measurement": "MIC", "setting": "[5]", "result": 6.25, "unit": "µM"}, {"measurement": "MIC", "setting": "[6]", "result": "> 100", "unit": "µM"}, {"measurement": "MIC", "setting": "[7]", "result": 12.5, "unit": "µM"}, {"measurement": "MIC", "setting": "[8]", "result": 25, "unit": "µM"}, {"measurement": "MIC", "setting": "[9]", "result": 0.78, "unit": "µM"}, {"measurement": "antibiotic activity compared to macrolide antibiotics", "setting": "[10]", "result": "less antibiotic activity"}, {"measurement": "BrdU-treated fibroblasts killed (xCELLigence final cell index)", "setting": "[11]", "result": "over 90%"}, {"measurement": "effect on control cells (SRB)", "setting": "[12]", "result": "effective"}]}]}
